Tested on: kinases
Test: Streamlined CETSA / dMS workflow with staurosporine
Format: binding
Settings: staurosporine treated vs untreated samples
From the text: Initial experiments were designed to employ the ATP inhibitor staurosporine. Staurosporine is well documented as binding several different kinases, and so offers an a priori known binding event for study and method workup. The workflow for CETSA was streamlined. These improvements are based on two advantages: the use of factory made long heated columns for excellent chromatographic, and therefore sample to sample reproducibility, and the cloud computing platform, Chorus, which allows for the alignment and quantification of hundreds of thousands of mass spectrometric signals without the need to first identify said signals, see U.S. Pat. No. 6,906,320 “Mass Spectrometry Data Analysis Techniques,” incorporated herein by reference.
In the staurosporine analysis, the dMS workflow detected 270,822 features that were associated with 108,594 isotope groups. […] An important and distinguishing feature of the dMS workflow is that results are ranked on the basis of the quantitative data, and significant features may then be identified directly by reanalysis of the sample and acquisition of a MS2 spectrum with a retention time and m/z that matches the features of interest. This quantify first, identify second strategy greatly enhances the depth and precision of proteomic analysis compared to workflows that emphasize peptide identification rates. […]

How did the “Features at significance lower than p<0.0001, drug treated versus vehicle, that belong to kinases” value turn out when `CN[C@@H]1C[C@H]2O[C@@](C)([C@@H]1OC)n1c3ccccc3c3c4c(c5c6ccccc6n2c5c31)C(=O)NC4` [staurosporine] was run?
Its value is 13 out of 16 belonged to kinases.
